The source of these data is patent US10919841B2, “Monoamine reuptake inhibitors” (Research Triangle Institute, priority 2009, dated 2021).

Molecules are shown by their SMILES. Like-named read-outs stand apart in the source and are kept apart here.

One assay has as its target serotonin transporter (Rattus norvegicus, UniProt P31652). Briefly: 5-HT releasing/substrate activity using rat brain synaptosomes.
Assay [1] has as its system mice. The experiment in a line: locomotor activity, 1-h observation protocol. It counts as in vivo. To be noted: for Emax / ED50: Mus musculus; for Emax: 0.5 h, read-out: Locomotor Activity 1-Hour % Peak Cocaine.
Assay [2] has as its target T1, (h)DAT (Homo sapiens, UniProt Q01959).
T1 construct: expressed in transfected cells
The experiment in a line: competition binding with [125I]RTI-55 at (h)DAT stably expressed in HEK293 cells. To be noted: mean ± standard error of three independent experiments.

In assay [3] the test system is rats. The experiment in a line: cocaine discrimination time-course study, oral administration. To be noted: for ED50: Rattus norvegicus, po, 0.75 h; for generalization to cocaine: p.o.
Assay [4] concerns rats. The experiment in a line: cocaine discrimination (2-lever operant), i.p. administration.
Assay [5] concerns the target T1, (h)DAT. Briefly: block of [3H]dopamine reuptake in HEK-(h)DAT cells. It counts as cell-based.
Assay [6] deals with T2, (h)NET (Homo sapiens, UniProt P23975). The experiment in a line: block of [3H]norepinephrine reuptake in HEK-(h)NET cells.
For assay [7], the target named is T3, (h)SERT (Homo sapiens, UniProt P31645).
T3 construct: expressed in transfected cells; host or cells: HEK293
As to conditions: read-out: Binding, Ki SERT.

The target of assay [8] is T3, (h)SERT. The experiment in a line: block of [3H]serotonin reuptake in HEK-(h)SERT cells. The class given is cell-based.
In assay [9] the target is T2, (h)NET. The experiment in a line: competition binding with [125I]RTI-55 at (h)NET stably expressed in HEK293 cells. As to conditions: read-out: Binding, Ki NET; mean ± standard error of three independent experiments.
The test system of assay [10] is mice. Briefly: locomotor activity, 8-h time course protocol. As to conditions: for locomotor stimulant activity across the 1-h and 8-h protocols, in words: 1-h and 8-h tests compared; for Emax / ED50: Mus musculus; for Emax: read-out: Locomotor Activity 8-Hour % Peak Cocaine, percent of cocaine's maximal effect, 30 min period of maximum stimulation; for ED50: read-out: Locomotor Activity 8-Hour ED50; for Locomotor Activity 8-Hour Time, min Period, length: duration of locomotor activity; for Locomotor Activity 8-Hour Time, min Period, max: time period of maximum effect. It counts as in vivo.

The mark [11] stands for this setting: dose to produce 50% of the compound's maximal effect, 1-h.
Where [12] appears, read: Rattus norvegicus, ip, read-out: % cocaine lever responding.
Setting [13] is: read-out: IC50 for NE uptake inhibition, [3H]NE.
[14] abbreviates: dose to produce 50% of the compound's maximal effect, 8-h.
The mark [15] stands for this setting: [3H]DA, read-out: IC50 for DA uptake inhibition.

Sequence of serotonin transporter (P31652 whole entry): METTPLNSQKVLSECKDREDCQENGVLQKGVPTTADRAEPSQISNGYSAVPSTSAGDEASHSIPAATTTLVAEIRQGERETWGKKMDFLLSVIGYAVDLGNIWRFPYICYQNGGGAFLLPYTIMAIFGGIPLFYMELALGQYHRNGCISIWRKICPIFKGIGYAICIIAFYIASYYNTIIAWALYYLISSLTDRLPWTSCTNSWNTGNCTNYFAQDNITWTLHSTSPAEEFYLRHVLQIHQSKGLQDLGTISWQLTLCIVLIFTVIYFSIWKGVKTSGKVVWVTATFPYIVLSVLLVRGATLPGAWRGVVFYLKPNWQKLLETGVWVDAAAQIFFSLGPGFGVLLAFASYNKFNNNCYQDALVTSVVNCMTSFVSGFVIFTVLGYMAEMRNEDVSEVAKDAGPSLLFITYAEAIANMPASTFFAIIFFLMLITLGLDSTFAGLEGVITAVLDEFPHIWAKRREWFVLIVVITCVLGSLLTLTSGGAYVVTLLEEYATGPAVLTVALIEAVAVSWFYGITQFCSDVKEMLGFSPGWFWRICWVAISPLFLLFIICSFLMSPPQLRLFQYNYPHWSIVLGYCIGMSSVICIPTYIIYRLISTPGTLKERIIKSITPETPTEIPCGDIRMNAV
T2 sequence (P23975 whole entry): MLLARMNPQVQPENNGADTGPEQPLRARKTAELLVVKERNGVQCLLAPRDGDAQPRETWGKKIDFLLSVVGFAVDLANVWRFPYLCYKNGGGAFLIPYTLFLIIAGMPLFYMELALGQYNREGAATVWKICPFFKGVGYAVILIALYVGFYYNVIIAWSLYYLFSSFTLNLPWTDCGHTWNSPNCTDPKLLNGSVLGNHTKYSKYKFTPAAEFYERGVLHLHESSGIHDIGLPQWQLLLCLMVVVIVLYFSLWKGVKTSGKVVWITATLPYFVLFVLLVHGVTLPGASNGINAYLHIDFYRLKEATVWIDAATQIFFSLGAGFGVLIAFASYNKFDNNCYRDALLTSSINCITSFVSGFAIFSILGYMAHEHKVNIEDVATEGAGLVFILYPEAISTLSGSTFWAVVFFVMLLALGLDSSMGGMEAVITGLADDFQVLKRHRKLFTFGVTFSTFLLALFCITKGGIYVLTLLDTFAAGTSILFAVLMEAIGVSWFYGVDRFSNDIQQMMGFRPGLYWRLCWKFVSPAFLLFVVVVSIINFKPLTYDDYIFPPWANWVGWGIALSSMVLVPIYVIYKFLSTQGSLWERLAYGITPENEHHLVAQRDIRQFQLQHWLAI
T3 sequence (P31645 whole entry): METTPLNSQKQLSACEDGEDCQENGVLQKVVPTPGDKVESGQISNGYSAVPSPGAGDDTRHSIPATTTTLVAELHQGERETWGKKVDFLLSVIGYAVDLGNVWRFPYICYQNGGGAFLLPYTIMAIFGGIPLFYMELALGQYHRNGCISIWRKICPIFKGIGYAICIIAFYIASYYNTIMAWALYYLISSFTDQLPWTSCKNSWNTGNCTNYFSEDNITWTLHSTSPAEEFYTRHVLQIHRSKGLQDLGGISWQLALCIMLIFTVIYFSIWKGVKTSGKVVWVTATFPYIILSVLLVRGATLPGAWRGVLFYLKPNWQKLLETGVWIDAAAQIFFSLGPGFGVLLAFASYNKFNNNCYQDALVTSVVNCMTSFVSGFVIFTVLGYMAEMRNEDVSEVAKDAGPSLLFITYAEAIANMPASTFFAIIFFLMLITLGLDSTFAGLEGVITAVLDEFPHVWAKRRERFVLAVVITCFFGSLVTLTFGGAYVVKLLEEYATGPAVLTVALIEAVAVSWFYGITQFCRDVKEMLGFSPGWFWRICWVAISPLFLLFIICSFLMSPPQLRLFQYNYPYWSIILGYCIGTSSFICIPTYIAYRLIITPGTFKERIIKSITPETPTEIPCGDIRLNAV
T1 sequence (Q01959 whole entry): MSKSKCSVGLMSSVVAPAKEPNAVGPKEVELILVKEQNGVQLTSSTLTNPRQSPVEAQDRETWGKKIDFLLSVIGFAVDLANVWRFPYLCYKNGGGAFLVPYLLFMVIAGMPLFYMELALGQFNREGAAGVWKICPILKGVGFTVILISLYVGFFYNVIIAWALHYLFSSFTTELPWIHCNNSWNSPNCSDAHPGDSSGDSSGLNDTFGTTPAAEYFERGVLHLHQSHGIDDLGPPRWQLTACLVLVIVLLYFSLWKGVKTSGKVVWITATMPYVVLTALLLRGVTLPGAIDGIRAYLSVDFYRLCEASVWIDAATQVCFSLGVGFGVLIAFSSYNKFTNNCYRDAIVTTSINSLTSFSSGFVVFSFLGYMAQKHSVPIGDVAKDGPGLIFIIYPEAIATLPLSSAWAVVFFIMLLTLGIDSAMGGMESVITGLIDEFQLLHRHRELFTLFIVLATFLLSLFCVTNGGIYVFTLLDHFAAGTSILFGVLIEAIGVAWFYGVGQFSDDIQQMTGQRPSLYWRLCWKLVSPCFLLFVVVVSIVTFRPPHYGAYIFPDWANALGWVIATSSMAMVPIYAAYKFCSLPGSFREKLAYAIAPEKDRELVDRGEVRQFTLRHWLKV

On to `CC(NC1CC1)C(=O)c1cccc(Br)c1` (stereo not drawn), for which the EC50 on serotonin transporter was 0.383 ± 0.056 µM.
On to `Cc1cccc(C(=O)C(C)NC2CC2)c1` (stereo not drawn), for which, at serotonin transporter, the response was half-maximal at 0.89 ± 0.063 µM (EC50).
The same measure, in the same setting: with `COc1cccc(C(=O)C(C)NC2CC2)c1` (stereo not drawn) the figure was 0.676 ± 0.197 µM.
Same read-out and setting: in the case of `CC(NC1CC1)C(=O)c1ccc(Cl)cc1` (stereo not drawn) it was 2.7 ± 0.314 µM.
On the same count and under the same terms, with `Cc1ccc(C(=O)C(C)NC2CC2)cc1` (stereo not drawn) the figure was 0.707 ± 0.069 µM; with `CC(NC1CC1)C(=O)c1ccc(Cl)c(Cl)c1` (stereo not drawn), 0.148 ± 0.035 µM.
Take `Cc1ccc(C(=O)C(C)NC2CC2)cc1Cl` (stereo not drawn): at serotonin transporter, a half-maximal response (EC50) required 0.139 ± 0.03 µM.
On to `CCCC(NC(C)(C)C)C(=O)c1ccc(Cl)c(Cl)c1` (stereo not drawn) [Compound 2bb, 2-(tert-Butylamino)-3′,4′-dichloropentanophenone], for which the values for the Emax in the assay on mice [1] and with mice [10] were 49% and 100%, respectively. Also, the ED50 was determined as 18.1 mg/kg in the assay on mice [1] (setting [11]); 17.3 mg/kg in the assay with rats [3]; 6.95 mg/kg in the assay with rats [4] (Rattus norvegicus, ip, read-out: Full Generalization ED50); 35 mg/kg in the assay with mice [10] (setting [14]). Besides, the inhibition constant (Ki) was 0.0437 µM at (h)DAT [2], 0.842 µM on (h)SERT [7] and 0.52 µM at (h)NET [9]. Further, the responders at 5 mg/kg with rats [4] (setting [12]) was 1%. The responders at 10 mg/kg in the assay with rats [4] (setting [12]) is 17%. The responders at 25 mg/kg with rats [4] (setting [12]) was determined as 10%. Moreover, the “DA uptake inhibition, in words” value on (h)DAT [5] was “slightly lower IC50 values than 2j”. Also, the IC50 came out at 0.084 µM on (h)DAT [5] (mean ± standard error of three independent experiments, read-out: Uptake, IC50 [3H]DA); 0.043 µM at (h)NET [6] (setting [13]); 1.58 µM on (h)SERT [8] (read-out: Uptake, IC50 [3H]5-HT). The “times better as NE uptake inhibitors than bupropion” value at (h)NET [6] (relative to bupropion) is reported as 34 times. Also, the “locomotor stimulant activity across the 1-h and 8-h protocols, in words” value with mice [10] is reported as “moderate activity in the 1-h test with increased activity in the time-course study”. The “Locomotor Activity 8-Hour Time, min Period, length” value with mice [10] is reported as 470 min. Moreover, in the assay with mice [10], the “Locomotor Activity 8-Hour Time, min Period, max” value lay in the range of 0 to 30 min.
As to `CC(C)(C)NC(CCC1CCCCC1)C(=O)c1cccc(Cl)c1` (stereo not drawn) [Compound 2u, 2-(N-tert-Butylamino)-3′-chlorophenyl-4-cyclohexylbutanophenone], the “Locomotor Activity 1-Hour ED50” value with mice [1] (setting [11]) is reported as “NE^f”. In addition, the values for the Ki at (h)DAT [2], on (h)SERT [7] (mean ± standard error of three independent experiments) and at (h)NET [9] were 1.7 µM, 6.2 µM and 3.8 µM, respectively. Moreover, the “% cocaine lever responding” value in the assay with rats [4] (rats, IP, dose 5 mg/kg) worked out at 0%; in the assay on rats [4] (rats, IP, dose 10 mg/kg) it was 0%; with rats [4] (rats, IP, dose 25 mg/kg) it was 70%. Also, the “Comments (response rate)” value in the assay on rats [4] (rats, IP, response rate relative to vehicle control) is on record as “B^b”. The IC50 was greater than 10 µM on (h)DAT [5] (setting [15]); greater than 10 µM on (h)DAT [5] (bound given in μM, read-out: Uptake, IC50 [3H]DA); greater than 10 µM at (h)NET [6] (read-out: Uptake, IC50 [3H]NE, bound given in μM); greater than 10 µM on (h)SERT [8] (bound given in μM, read-out: Uptake, IC50 [3H]5-HT). The “locomotor stimulant activity across the 1-h and 8-h protocols, in words” value with mice [10] is “inactive in the 1-h test but showed weak stimulant activity in the 8-h protocol”. Also, the “Locomotor Activity 8-Hour ED50” value with mice [10] (setting [14]) came out at 15.3 mg/kg. In addition, in the assay with mice [10], the “Locomotor Activity 8-Hour Time, min Period, length” value lay in the range of 60 to 160 min. Moreover, the “Locomotor Activity 8-Hour % Peak Cocaine” value in the assay on mice [10] (percent of cocaine's maximal effect, 30 min period of maximum stimulation) is 47%. Further, in the assay on mice [10], the “Locomotor Activity 8-Hour Time, min Period, max” value was in the range of 60 to 90 min.
Turning to `CC(NC1CC1)C(=O)c1cccc(Cl)c1` (stereo not drawn) [Compound 2x, 2-(N-Cyclopropylamino)-3′-chloropropiophenone], the Emax in the assay on mice [1] and in the assay with mice [10] was 94% throughout. Moreover, the ED50 in the assay on mice [1] (setting [11]) was 14.7 mg/kg; with rats [3], 13.3 mg/kg; in the assay on mice [10] (setting [14]), 14.7 mg/kg. For the same compound, the Ki was 1.15 µM on (h)DAT [2], 3.42 µM on (h)SERT [7] and 4 µM on (h)NET [9]. Also, the generalization to cocaine entry was “partial generalization” in the assay on rats [3] (45 min, 10 mg/kg); “partial generalization” in the assay with rats [3] (45 min, 25 mg/kg); “full generalization” in the assay on rats [3] (90 min, 25 mg/kg); “full generalization” in the assay with rats [3] (180 min, 25 mg/kg). In addition, in the assay on rats [4] (setting [12]), the responders at 5 mg/kg was found to be 6%. Further, the responders at 10 mg/kg in the assay with rats [4] (setting [12]) is 67%. Besides, the responders at 25 mg/kg in the assay on rats [4] (setting [12]) was 34%. In the assay with rats [4] (setting [12]), the responders at 50 mg/kg amounted to 17%. The responders at 100 mg/kg with rats [4] (setting [12]) amounted to 17%. The “cocaine-appropriate responding (partial generalization)” value with rats [4] (i.p., 5 mg/kg) was found to be 67%. This compound also displayed a cocaine-appropriate responding with rats [4] (i.p., 10 mg/kg) of 67%. Also, the “response rate, in words” value in the assay with rats [4] (i.p., dose range given in the value) is reported as “affected response rate at 25-100 mg/kg”. Also, the IC50 was 0.265 µM on (h)DAT [5] (setting [15]), 2.15 µM on (h)NET [6] (setting [13]) and 3.18 µM at (h)SERT [8] (read-out: IC50 for 5HT uptake inhibition). Moreover, the “times more potent than bupropion as DA uptake inhibitor” value on (h)DAT [5] (relative to bupropion) was determined as 3.6 times. It took 0.283 µM to reach a half-maximal effect at serotonin transporter (EC50). Moreover, the “locomotor stimulant activity across the 1-h and 8-h protocols, in words” value with mice [10] is given as “strong stimulants in both studies”. Besides, the “Locomotor Activity 8-Hour Time, min Period, length” value with mice [10] amounted to 350 min. For the same compound, the “Locomotor Activity 8-Hour Time, min Period, max” value with mice [10] is 0 to 30 min.
